Experimental data taken from patent US7741124B2, “Detection procedures for fibrinogen and/or fibrinogen derivatives” (priority 2003, dated 2010).

How the values were obtained:
Assay type in all cases: biochemical
thrombin [1] = target: T1, thrombin (Bos taurus, UniProt P00735); assay: Inhibitory concentration 50% (IC50) of heparin against thrombin, FIFTA turbidity without Polybrene; details: FIFTA system without Polybrene
T1 construct: 100 μl 200 mIU/ml thrombin in 6% BSA-PBS (without Polybrene®)
Procedure: 50 μl 100% Pool were added to 10 μl 0-160 IU/ml heparin. 100 μl 200 mIU/ml thrombin in 6% BSA-PBS (without Polybrene®) were added and the increase in absorbance at 405 nm was followed.

thrombin [2] = target: T1, thrombin; assay: Inhibitory time point 50% (ITP50) of 10 IU/ml heparin-thrombin interaction; details: 10 IU/ml final heparin
Procedure: 50 μl P-Pool were incubated with 100 μl 200 miU/ml thrombin in 6% BSA-PBS (without Polybrene®). At 0 min (prior to thrombin addition) and 0.5-11 min reaction time (at RT) 10 μl 160 IU/ml heparin in 6% BSA-PBS was added (final heparin conc. in plasma+thrombin reagent=10 IU/ml; this heparin conc. increased the absorbance by 20 mA; all test results were corrected by this heparin induced turbidity increase). The turbidity increase at 405 nm was determined immediately after each heparin addition step and as a function of incubation time.
To determine the heparin addition time point (at RT) that is needed to decrease the 5 min, 10 min, 15 min or 20 min turbidity increase by 50% (inhibitory time point 50%=ITP), 50 μl P-Pool were incubated with 100 μl 200 mIU/ml thrombin in 6% BSA-PBS (without Polybrene®). After 0 s (prior to thrombin addition) and 10-140 s (in 10 s intervals) 10 μl 160 IU/ml heparin in 6% BSA-PBS were added. The turbidity increase at 405 nm as a function of incubation time (3-20 min) was determined.

[3] = target: T2, fibrinogen in human plasma (Homo sapiens, UniProt P02671+P02675+P02679); assay: Inactivation of fibrinogen by vancomycin or chloramine-T (FIFTA read-out); details: 15 min 37° C. incubation in plasma, then FIFTA; read-out: IC50 against plasmatic fibrinogen
T2 construct: 200 μl of 256% of norm active fibrinogen in P-Pool; from tissue; host or cells: pooled citrated human patient plasma (P-Pool / Fbgen-Pool)
T2 sequence (P02671 20-629 isoform P02671-2 limits assumed): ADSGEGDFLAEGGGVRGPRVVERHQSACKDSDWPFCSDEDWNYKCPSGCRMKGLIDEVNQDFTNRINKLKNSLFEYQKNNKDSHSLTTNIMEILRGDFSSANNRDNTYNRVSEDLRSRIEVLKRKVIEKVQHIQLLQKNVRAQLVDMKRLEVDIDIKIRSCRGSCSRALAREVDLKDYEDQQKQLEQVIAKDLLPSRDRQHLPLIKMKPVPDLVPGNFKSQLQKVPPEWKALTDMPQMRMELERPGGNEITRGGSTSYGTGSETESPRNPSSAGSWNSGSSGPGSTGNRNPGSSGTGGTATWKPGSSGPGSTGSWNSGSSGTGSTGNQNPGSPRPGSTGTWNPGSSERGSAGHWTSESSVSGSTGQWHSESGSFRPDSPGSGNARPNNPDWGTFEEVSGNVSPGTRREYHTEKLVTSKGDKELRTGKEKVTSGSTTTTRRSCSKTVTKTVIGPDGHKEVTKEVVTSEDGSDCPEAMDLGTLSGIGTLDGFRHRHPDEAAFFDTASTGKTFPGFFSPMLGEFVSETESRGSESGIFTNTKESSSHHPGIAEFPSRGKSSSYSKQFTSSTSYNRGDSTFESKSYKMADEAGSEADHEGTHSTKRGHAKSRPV
T2 sequence (P02675 31-491): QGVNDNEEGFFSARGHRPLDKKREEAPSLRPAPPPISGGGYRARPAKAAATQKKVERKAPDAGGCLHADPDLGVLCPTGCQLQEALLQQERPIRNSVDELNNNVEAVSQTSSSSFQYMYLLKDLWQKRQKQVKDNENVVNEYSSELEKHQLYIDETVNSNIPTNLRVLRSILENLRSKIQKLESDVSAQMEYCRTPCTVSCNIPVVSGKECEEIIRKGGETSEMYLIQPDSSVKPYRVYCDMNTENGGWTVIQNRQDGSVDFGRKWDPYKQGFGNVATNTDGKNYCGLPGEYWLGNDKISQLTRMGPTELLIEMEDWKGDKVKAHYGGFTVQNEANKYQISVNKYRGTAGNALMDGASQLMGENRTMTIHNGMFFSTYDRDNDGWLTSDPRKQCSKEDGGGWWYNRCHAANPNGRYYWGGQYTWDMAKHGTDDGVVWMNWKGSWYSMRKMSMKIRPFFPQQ
T2 sequence (P02679 27-437 isoform P02679-2 limits assumed): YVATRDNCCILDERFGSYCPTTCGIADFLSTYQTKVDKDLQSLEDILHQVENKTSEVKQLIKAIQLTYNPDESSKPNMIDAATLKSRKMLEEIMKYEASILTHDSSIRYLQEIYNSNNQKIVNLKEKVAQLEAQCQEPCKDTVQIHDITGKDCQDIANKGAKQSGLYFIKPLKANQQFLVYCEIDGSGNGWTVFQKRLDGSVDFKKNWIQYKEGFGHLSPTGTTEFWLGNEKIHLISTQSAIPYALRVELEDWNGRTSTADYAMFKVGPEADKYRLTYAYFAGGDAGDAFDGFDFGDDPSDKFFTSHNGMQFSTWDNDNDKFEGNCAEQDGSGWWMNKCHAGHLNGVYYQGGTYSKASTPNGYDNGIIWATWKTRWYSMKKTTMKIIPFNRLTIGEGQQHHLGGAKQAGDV
Procedure: 200 μl of 256% of norm active fibrinogen in P-Pool were incubated with 25 μl 0-100 mM vancomycin or 0-100 mM chloramine-T® in aqua dest. for 15 min (37° C.). 50 μl samples of these reaction mixtures were withdrawn and incubated with 100 μl 200 mIU/ml thrombin, 400 μg/ml Polybrene®, 6% BSA-PBS. The results were standardized by simultaneous analysis of 144% of norm active fibrinogen in P-Pool.

fibrinogen [4] = target: T3, fibrinogen (Homo sapiens, UniProt P02671+P02675+P02679); assay: FIFTA of chloramine-T oxidized / EDTA-supplemented plasma; details: 60 min RT, P-Pool and EDTA supplemented P-Pool; read-out: chloramine-T concentration that inactivates 50% of fibrinogen in the FIFTA
T3 construct: pooled patient plasma (P-Pool, n=32 single plasmas); from tissue; host or cells: pooled citrated patient plasma (P-Pool, Fbgen-Pool-Plasma)
T3 sequence (P02671 20-644 isoform P02671-2 limits assumed): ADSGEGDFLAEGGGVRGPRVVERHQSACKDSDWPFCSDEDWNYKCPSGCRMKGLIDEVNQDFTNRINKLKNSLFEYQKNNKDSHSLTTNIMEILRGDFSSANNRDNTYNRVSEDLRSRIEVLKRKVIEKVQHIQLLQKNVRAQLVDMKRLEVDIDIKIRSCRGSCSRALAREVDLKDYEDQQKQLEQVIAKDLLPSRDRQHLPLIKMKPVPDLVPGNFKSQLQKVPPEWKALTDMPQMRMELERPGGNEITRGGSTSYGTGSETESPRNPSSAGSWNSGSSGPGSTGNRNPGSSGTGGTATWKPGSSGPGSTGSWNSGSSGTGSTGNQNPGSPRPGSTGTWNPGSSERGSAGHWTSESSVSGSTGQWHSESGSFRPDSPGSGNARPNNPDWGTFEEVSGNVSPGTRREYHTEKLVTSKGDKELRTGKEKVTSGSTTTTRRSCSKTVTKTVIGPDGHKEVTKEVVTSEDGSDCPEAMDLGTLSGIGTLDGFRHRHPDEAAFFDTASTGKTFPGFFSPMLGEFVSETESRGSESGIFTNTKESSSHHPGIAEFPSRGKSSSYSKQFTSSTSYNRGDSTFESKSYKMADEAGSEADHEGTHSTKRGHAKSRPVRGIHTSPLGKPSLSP
T3 sequence (P02675 31-491): T2 sequence (P02675 31-491)
T3 sequence (P02679 27-437 isoform P02679-2 limits assumed): T2 sequence (P02679 27-437 isoform P02679-2 limits assumed)
Procedure: The absorption at 405 nm is immediately measured (base value) and exactly after 5 min, if the reaction is performed at room temperature (23° C.). If the reaction is performed at 37° C., the second value is measured after 2 min. A microtiterplate reader (Milenia, DPC, Los Angeles, USA) is used. The increase in absorption (ΔA) is determined and the results are standardized against a pooled plasma of known, preferably of 100% of norm, fibrinogen-activity (Table 1).
(§1) 25 μl P-Pool or P-Pool supplemented with 8.6 mM (3.2 g/l) EDTA were incubated with 25 μl 0-89 mM chloramine-T® in PBS for 60 min at RT. Then the FIATA and the FIFTA were performed. For the FIATA, 25 μl PBS were added and the absorbance at 405 nm was determined (base value). 50 μl 4.4 mM vancomycin in PBS were added and after 1 min (RT) the absorbance at 405 nm was determined again (Table 1). […] 100% control=P-Pool without oxidant.
(§2) 25 μl P-Pool was incubated with 25 μl PBS or with 25 μl 2 mM CT in PBS. After 60 min RT, 25 μl 0-172 mM EDTA in PBS was added. After 5 min RT the FIATA and the FIFTA were performed as indicated in 2.7.

fibrinogen [5] = assay: FIATA (vancomycin reactivity) of chloramine-T oxidized / EDTA-supplemented plasma; details: EDTA-plasmas oxidized at 10-20 mM chloramine-T
Procedure: To 25 μl plasma 50 μl PBS are added and the absorbance (405 nm) is determined (base value). Then 50 μl 4.4 mM vancomycin in PBS are added. The absorbance at 405 nm is determined after 2 min, if the reaction is performed at room temperature (23° C.). If the reaction is performed at 37° C., the second value is determined after 1 min. A microtiterplate reader (Milenia, DPC, Los Angeles, USA) is used. The increase in absorption (ΔA) is determined and the results are standardized against a pooled plasma of known, preferably of 100% of norm, fibrinogen-concentration, and against 0.9% NaCl (zero-value of turbidity) (Table 2).
as §1, §2

Molecule: heparin
- heparin concentrations that completely inhibit thrombin (thrombin [1]): ≥ 0.63 IU/ml
- time window in which heparin can inhibit fibrin generation (thrombin [2]; RT): ≤ 2 min
- time point of heparin addition that results into a 50% decrease of ΔA (ITP50) (thrombin [2]; ΔA at 5-20 min incubation time (RT)): approximately 30 s

Molecule: Cc1ccc(S(=O)(=O)[N-]Cl)cc1.[Na+] [chloramine-T®, chloramine-T]
- IC50 [3]: ~2000 µM
- IC50 (fibrinogen [4]): 2000 µM
- increase of reactivity with vancomycin, % of the citrate control value (fibrinogen [5]): 40%
